A word on the EC50: it is the concentration that produces a half-maximal response. Lower therefore signals higher potency in that assay. The term half-life denotes the time in which the quantity being followed falls by half. Read a high half-life as slow loss. For orientation: Cmax means the maximum level reached in the sampled fluid or tissue. Broadly, the Tmax is the time from dosing to the highest level. As usually defined, the bioavailability is dose-corrected exposure relative to a reference, in per cent.

One data set addresses T1, human FFAR1 (GPR40) (Homo sapiens, UniProt O14842).
T1 construct: Flag; expressed in transfected cells; host or cells: HEK293T
Nature of the data set: NFAT-RE-based reporter gene activity assay (Dual-Glo luciferase) for GPR40 agonistic activity in co-transfected HEK293T cells. Conditions: 4-hour treatment. Format: cell-based. Put shortly: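 Agonism read as NFAT-RE-driven firefly luciferase over Renilla control (Dual-Glo) after 4 h compound exposure, top concentration 1 µM, 10 half-log steps.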
A general note: In a reporter assay the amount or activity of a reporter protein is the signal.

Data set [1] in a line: Pharmacokinetic evaluation in ICR mice (intravenous and gavage). The data set is classed as in vivo. As to the method: The bioavailability and pharmacokinetic behavior of the compounds were evaluated in mice. 6 male ICR mice with similar body weights were selected, among which 3 mice were administered a single gavage dose of 10 mg/kg, and the other 3 mice were intravenously administered a single dose of 5 mg/kg. Blood samples were collected at 5 minutes (intravenous administration), 15 minutes, 30 minutes, 1 hour, 2 hours, 4 hours, and 7 hours after administration. The plasma samples were analyzed for concentration by LCMS/MS, and the pharmacokinetic parameters of the compounds were analyzed using the PKSolver free tool and non-compartmental analysis (NCA) software.
Experimental animals: Each compound test group included 6 healthy male ICR mice, weighing 18-25 g, purchased from Charles River, which were randomly divided into 2 groups with 3 mice each.
Preparation of formulations: A certain amount of the compound was weighed and added to 2% DMSO + 15% Solutol + 83% physiological saline to form a clear solution.
Dosage: ICR mice were fasted overnight and administered the compound at a dose of 10 mg/kg via gavage or 5 mg/kg via intravenous injection. The dosing volumes for gavage and intravenous administration were 10 mL/kg and 5 mL/kg, respectively. Uniform feeding was conducted 2 hours after administration.
Sample collection: Approximately 30 µL of blood was collected from the great saphenous vein at 5 minutes (intravenous administration), 15 minutes, 30 minutes, 1 hour, 2 hours, 4 hours, and 7 hours after administration. The blood was placed into commercially available tubes containing K2-EDTA. The blood samples were then centrifuged at 4°C and 4600 rpm for 5 minutes to obtain plasma samples. All plasma samples were rapidly frozen on dry ice and maintained at -70°C until LCMS/MS analysis was performed.
Sample preparation: 10 µL of plasma sample was aspirated and precipitated with a methanol solution containing 50 nmol/L of α-naphthoflavone (internal standard). The mixture was thoroughly mixed and centrifuged at 4°C and 14000 rpm for 5 minutes. Then, 75 µL of the supernatant was mixed with 75 µL of methanol for LCMS/MS analysis.

Data set [2] can be described thus: Tissue distribution evaluation in ICR mice. The data set is classed as in vivo. Particulars: oral gavage 5 mg/kg, 1 hour after administration. As to the method: Experimental protocol: The tissue distribution characteristics of the compounds were evaluated in mice. 2 male ICR mice with similar body weights were selected, and the compound was administered via oral gavage at a dose of 5 mg/kg. The animals were sacrificed at 1 hour, and blood, liver, and heart were collected. After sample processing, the concentration of the compounds in each matrix was analyzed by LCMS/MS, and the average values of each group were calculated to evaluate the tissue/plasma ratio of the compounds.
Experimental animals: 2 healthy male ICR mice were purchased from Charles River.
Preparation of formulations: A certain amount of the compound was weighed and added to 2% DMSO + 15% Solutol + 83% distilled water to form a clear solution.
Dosage: ICR mice were fasted overnight and administered the compound via oral gavage at a dose of 5 mg/kg. The volume of oral gavage administration was 10 mL/kg. Uniform feeding was conducted 2 hours after administration.
Sample collection: Animals were sacrificed 1 hour after administration, and blood, liver, and heart tissues were collected. The blood was placed into commercially available tubes containing K2-EDTA. The blood samples were then centrifuged at 4°C and 4600 rpm for 5 minutes to obtain plasma samples. All plasma and tissue samples were rapidly frozen on dry ice and maintained at -70°C until LCMS/MS analysis was performed.
Sample preparation: 50 µL of the plasma sample was aspirated, precipitated with methanol, thoroughly mixed, and centrifuged at 4°C and 14000 rpm for 5 minutes. Then, 75 µL of the supernatant was mixed with 75 µL of methanol for LCMS/MS analysis. Tissue samples were homogenized using methanol. After homogenization, the mixture was centrifuged at 14,000 rpm for 5 minutes at 4°C. Subsequently, 75 µL of the supernatant was mixed with 75 µL of methanol for LCMS/MS analysis.

[3] abbreviates: Intravenous Administration (5 mg/kg).
Setting [4] is: mouse, plasma, po, Gavage Administration (10 mg/kg).

T1 sequence (O14842 whole entry): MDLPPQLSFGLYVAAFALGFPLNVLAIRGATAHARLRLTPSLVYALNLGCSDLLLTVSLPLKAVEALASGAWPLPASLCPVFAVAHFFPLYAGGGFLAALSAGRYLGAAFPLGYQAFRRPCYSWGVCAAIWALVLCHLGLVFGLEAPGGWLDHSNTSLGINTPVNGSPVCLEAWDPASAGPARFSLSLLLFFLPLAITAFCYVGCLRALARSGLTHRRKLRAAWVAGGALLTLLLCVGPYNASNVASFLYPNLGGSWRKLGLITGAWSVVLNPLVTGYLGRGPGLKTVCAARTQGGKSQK

As to `COc1ccc(F)c(N2CCC(c3oc4cc(C(CC(=O)O)C5CC5)ccc4c3-c3ccc(C(C)(C)C)cc3)CC2)c1` (stereo not shown) [Compound 168], the EC50 at human FFAR1 (GPR40) was in the range of 100 to 500 nM. Further, on human FFAR1 (GPR40) (class symbols), the “Efficacy (%)” value is recorded as “††† (Efficacy (%) > 150)”. Moreover, in data set [1] (setting [3]), the “CL_obs” value stood at 2.1 mL/min/kg and the “Vss_obs” value was determined as 0.494 L/kg. For the same compound, the half-life in data set [1] (mouse, plasma, Intravenous Administration (5 mg/kg)) is 3.9 h. In addition, in data set [1] (setting [4]), the concentration peaked (Cmax) at 3470 ng/mL and the Tmax came out at 3 h. Also, the AUC(0-t) at 7 h in data set [1] (mouse, plasma, po, Gavage Administration (10 mg/kg), read-out: AUC0-7 h) worked out at 15400 ng·h/mL. In data set [1] (mouse, plasma, po, gavage 10 mg/kg versus intravenous 5 mg/kg), this compound displayed a bioavailability of 24%. In addition, in data set [2], the “Plasma Concentration (ng/mL) or Tissue Concentration (ng/g): Blood” value worked out at 936 ng/mL, the “Plasma Concentration (ng/mL) or Tissue Concentration (ng/g): Heart” value is 485 ng/g, the “Plasma Concentration (ng/mL) or Tissue Concentration (ng/g): Liver” value came out at 1923 ng/g and the “Plasma Concentration (ng/mL) or Tissue Concentration (ng/g): Plasma” value stood at 1550 ng/mL.

Values taken from patent EP4682145A1, “BENZOHETEROCYCLIC COMPOUND, AND PREPARATION METHOD THEREFOR AND USE THEREOF” (Cascade Pharmaceuticals, Inc., priority 2023, dated 2024).
